A value given as a limit tells only on which side of the number the result lay.

The subject of the experiment is Influenza A virus. Put plainly: Antiviral activity against oseltamivir-resistant Influenza A virus A/H1N1/pdm09 infected in MDCK cells assessed as inhibition of plaque formation measured after 2 days. Particulars: 48 h.
On to `CCC(CC)O[C@@H]1C=C(C(=O)O)C[C@H](NCc2ccc(OCc3cccc(B(O)O)c3)cc2F)[C@H]1NC(C)=O`, for which the EC50 (as a rule, the concentration giving half of the maximal effect) was found to be 170 nM. As for `CCC(CC)O[C@@H]1C=C(C(=O)O)C[C@H](NCc2ccc(OCc3cccc(B(O)O)c3)cc2C)[C@H]1NC(C)=O`, the figure is 30 nM; as for `CCC(CC)O[C@@H]1C=C(C(=O)O)C[C@H](NCc2ccc(OCc3ccc(B(O)O)cc3)cc2Cl)[C@H]1NC(C)=O`, 400 nM. As for `CCC(CC)O[C@@H]1C=C(C(=O)O)C[C@H](NCc2ccc(OCc3ccc(B(O)O)cc3)cc2F)[C@H]1NC(C)=O`, the figure is 580 nM. Regarding `CCC(CC)O[C@@H]1C=C(C(=O)O)C[C@H](NCc2c(C)cc(OCc3cccc(B(O)O)c3)cc2C)[C@H]1NC(C)=O`, the EC50 amounted to 150 nM.

In the case of `CCC(CC)O[C@@H]1C=C(C(=O)O)C[C@H](NCc2ccc(OCc3ccc(B(O)O)cc3)cc2C)[C@H]1NC(C)=O`, the EC50 worked out at 40 nM. Regarding `CCC(CC)O[C@@H]1C=C(C(=O)O)C[C@H](NCc2ccc(OCc3cccc(B(O)O)c3)cc2Cl)[C@H]1NC(C)=O`, the EC50 is 30 nM. As for `CCC(CC)O[C@@H]1C=C(C(=O)O)C[C@H](N)[C@H]1NC(C)=O` [OSELTAMIVIR CARBOXYLATE], the figure is greater than 20000 nM.

These data come from ChEMBL document CHEMBL6078687 (J Med Chem, 2024).
